Ki and IC50 data for 30 compounds are collected here from US9079866B2, “Flap modulators” (JANSSEN PHARMACEUTICA NV, priority 2013, dated 2015).

The target of one test is human FLAP (Homo sapiens (Human), UniProt P20292). Description: FLAP binding assay (HTRF format). The procedure, abridged:
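Read-out is the HTRF ratio. Each reported figure averages two assay plates on which samples were tested in duplicate.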

Test [1] deals with leukotriene pathway in human whole blood (LTB4 levels). Description: Human whole blood assay (A23187-stimulated LTB4). The class given is cell-based. Conditions: Homo sapiens, human whole blood diluted 1:1, A23187-stimulated; read-out: LTB4 IC50 1:1. The procedure, abridged: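 Compounds are pre-incubated 15 min at 37° Celsius in RPMI-diluted (1:1) heparinised whole blood before a 30 min A23187 stimulus (7 μg/mL). Plasma LTB4 is read by immunoassay kit, with IC50 calculated from a 4-parameter equation.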

Where [2] appears, read: read-out: FLAP Binding wild type HTRF Ki.

Where a name gives a salt, the structure may show the parent alone. Read-outs that look alike come from different tables or passages of the source. A value given as a limit tells only on which side of the number the result lay.

Chain of human FLAP (P20292 whole entry): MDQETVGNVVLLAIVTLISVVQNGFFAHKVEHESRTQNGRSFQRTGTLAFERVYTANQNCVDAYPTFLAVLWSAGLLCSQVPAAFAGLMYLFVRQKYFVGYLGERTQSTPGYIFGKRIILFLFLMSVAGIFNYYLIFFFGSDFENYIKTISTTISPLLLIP

For `Nc1ncc(-c2ccc(-c3cccnc3OC3CCOCC3)cc2F)cn1` [Example 654, 5-{2-Fluoro-4-[2-(tetrahydro-2H-pyran-4-yloxy)pyridin-3-yl]phenyl}pyrimidin-2-amine], the affinity on human FLAP (wild type FLAP, HTRF format) corresponds to a Ki of 130 nM. Also, in test [1], the IC50 worked out at 1050 nM.
Consider `Nc1ccc(-c2ccc(-c3ccccc3S(=O)(=O)N3CCOCC3)cc2F)cn1` [Example 660, 5-(3-Fluoro-2′-(morpholinosulfonyl)-[1,1′-biphenyl]-4-yl)pyridin-2-amine], for which the inhibition constant Ki on human FLAP (wild type FLAP, HTRF format) worked out at 83.3 nM. Also, in test [1], the IC50 was over 10000 nM.
For `Nc1ccc(-c2ccc(-c3ccccc3S(=O)(=O)N3C[C@@H]4C[C@H]3CO4)cc2F)cn1` [Example 663, 5-(2′-((1S,4S)-2-Oxa-5-azabicyclo[2.2.1]heptan-5-ylsulfonyl)-3-fluoro-[1,1′-biphenyl]-4-yl)pyridin-2-amine], at human FLAP (wild type FLAP, HTRF format), the affinity, expressed as Ki, was 5.8 nM. Further, the IC50 in test [1] worked out at 34.7 nM.
Regarding `CC(C)(CO)NS(=O)(=O)c1ccccc1-c1ccc(-c2ccc(N)nc2)c(F)c1` [Example 665, 4′-(6-Aminopyridin-3-yl)-3′-fluoro-N-(1-hydroxy-2-methylpropan-2-yl)-[1,1′-biphenyl]-2-sulfonamide], affinity at human FLAP (wild type FLAP, HTRF format) was put at a Ki of 2.6 nM. The IC50 in test [1] came to 22.4 nM.
With `CC(C)(CO)NS(=O)(=O)c1ccccc1-c1ccc(-c2cnc(N)c(F)c2)c(F)c1` [Example 667, 4′-(6-Amino-5-fluoropyridin-3-yl)-3′-fluoro-N-(1-hydroxy-2-methylpropan-2-yl)-[1,1′-biphenyl]-2-sulfonamide], the Ki on human FLAP (wild type FLAP, HTRF format) came out at 6 nM. Further, in test [1], the IC50 stood at 39.6 nM.
Compound `C[C@@H]([C@@H](O)c1ccccc1)N(C)S(=O)(=O)c1ccccc1-c1ccc(-c2cnc(N)c(F)c2)c(F)c1` [Example 669, 4′-(6-Amino-5-fluoropyridin-3-yl)-3′-fluoro-N-((1S,2S)-1-hydroxy-1-phenylpropan-2-yl)-N-methyl-[1,1′-biphenyl]-2-sulfonamide] showed a Ki on human FLAP (wild type FLAP, HTRF format) of 4 nM. Further, in test [1], the IC50 was found to be 106 nM.
For `C[C@@H](O)CNS(=O)(=O)c1ccccc1-c1cnc(-c2cnc(N)nc2)c(F)c1` [Example 673, 2-[6-(2-Aminopyrimidin-5-yl)-5-fluoropyridin-3-yl]-N-[(2R)-2-hydroxypropyl]benzenesulfonamide] the same measures were 134 nM and 101 nM.
In turn, `CCNS(=O)(=O)c1cc(C(F)(F)F)ccc1-c1cnc(-c2cnc(N)nc2)c(F)c1` [Example 674, 2-[6-(2-Aminopyrimidin-5-yl)-5-fluoropyridin-3-yl]-N-ethyl-5-(trifluoromethyl)benzenesulfonamide] displayed a Ki on human FLAP (wild type FLAP, HTRF format) of 2.4 nM. The IC50 in test [1] came out at 17.4 nM.
At human FLAP (wild type FLAP, HTRF format), `CC(C)(C)NS(=O)(=O)c1ccccc1-c1cnc(-c2cnc(N)nc2)c(F)c1` [Example 675, 2-[6-(2-Aminopyrimidin-5-yl)-5-fluoropyridin-3-yl]-N-tert-butylbenzenesulfonamide] registered a Ki of 0.7 nM. In addition, the IC50 in test [1] came to 55.1 nM.
`Nc1ncc(-c2ccc(-c3ccc(C(F)(F)F)cc3CN3CCOCC3)cn2)cn1` [Example 676, 5-{5-[2-(Morpholin-4-ylmethyl)-4-(trifluoromethyl)phenyl]pyridin-2-yl}pyrimidin-2-amine] displayed a Ki on human FLAP (wild type FLAP, HTRF format) of 234 nM. Moreover, in test [1], the IC50 came to 3710 nM.
Regarding `Nc1ncc(-c2ccc(-c3ccccc3S(=O)(=O)N3CCCC(F)(F)C3)cn2)cn1` [Example 679, 5-(5-{2-[(3,3-Difluoropiperidin-1-yl)sulfonyl]phenyl}pyridin-2-yl)pyrimidin-2-amine trifluoroacetic acid salt], the Ki at human FLAP (setting [2]) stood at 132 nM. For the same compound, the IC50 in test [1] worked out at 205 nM.
For `Nc1ncc(-c2ccc(-c3ccccc3S(=O)(=O)N3CCC(F)(F)C3)cn2)cn1` [Example 680, 5-(5-{2-[(3,3-Difluoropyrrolidin-1-yl)sulfonyl]phenyl}pyridin-2-yl)pyrimidin-2-amine trifluoroacetic acid salt] the same measures were 610 nM and 1050 nM.
Compound `Nc1ncc(-c2ccc(-c3ccccc3S(=O)(=O)N3CCCCCC3)cn2)cn1` [Example 681, 5-{5-[2-(Azepan-1-ylsulfonyl)phenyl]pyridin-2-yl}pyrimidin-2-amine trifluoroacetic acid salt] showed a Ki on human FLAP (wild type FLAP, HTRF format) of 52.2 nM. For the same compound, the IC50 in test [1] is 106 nM.
Compound `Nc1ncc(-c2ccc(-c3ccccc3S(=O)(=O)N3CCC(F)(F)CC3)cn2)cn1` [Example 682, 5-(5-{2-[(4,4-Difluoropiperidin-1-yl)sulfonyl]phenyl}pyridin-2-yl)pyrimidin-2-amine trifluoroacetic acid salt] registered a Ki at human FLAP (wild type FLAP, HTRF format) of 224 nM. Moreover, the IC50 in test [1] came out at 264 nM.
As to `CCNS(=O)(=O)c1ccccc1-c1ccc(-c2cnc(N)nc2)nc1` [Example 683, 2-[6-(2-Aminopyrimidin-5-yl)pyridin-3-yl]-N-ethylbenzenesulfonamide trifluoroacetic acid salt], the Ki at human FLAP (wild type FLAP, HTRF format) was 602 nM. For the same compound, in test [1], the IC50 was 280 nM.
`Nc1ncc(-c2ccc(-c3ccccc3S(=O)(=O)NC(C3CC3)C3CC3)cn2)cn1` [Example 684, 2-[6-(2-Aminopyrimidin-5-yl)pyridin-3-yl]-N-(dicyclopropylmethyl)benzenesulfonamide trifluoroacetic acid salt] displayed an inhibition constant Ki at human FLAP (wild type FLAP, HTRF format) of 46.3 nM. In addition, the half-inhibitory concentration (IC50) in test [1] worked out at 134 nM.
For `C[C@H](NS(=O)(=O)c1ccccc1-c1ccc(-c2cnc(N)nc2)nc1)C(F)(F)F` [Example 685, 2-[6-(2-Aminopyrimidin-5-yl)pyridin-3-yl]-N-[(1S)-2,2,2-trifluoro-1-methylethyl]benzenesulfonamide trifluoroacetic acid salt] the same measures were 52.3 nM and 115 nM.
For the compound `C[C@@H](NS(=O)(=O)c1ccccc1-c1ccc(-c2cnc(N)nc2)nc1)C(F)(F)F` [Example 686, 2-[6-(2-Aminopyrimidin-5-yl)pyridin-3-yl]-N-[(1R)-2,2,2-trifluoro-1-methylethyl]benzenesulfonamide trifluoroacetic acid salt], the affinity on human FLAP (wild type FLAP, HTRF format) corresponds to a Ki of 334 nM. In test [1], the IC50 was determined as 1490 nM.
`Nc1ncc(-c2ccc(-c3ccccc3S(=O)(=O)N3CCNC(=O)C3)cn2)cn1` [Example 687, 4-({2-[6-(2-Aminopyrimidin-5-yl)pyridin-3-yl]phenyl}sulonyl)piperazin-2-one] yielded a Ki on human FLAP (wild type FLAP, HTRF format) of 740 nM. Further, the IC50 in test [1] amounted to 3550 nM.
For the compound `C[C@H](O)CNS(=O)(=O)c1ccccc1-c1ccc(-c2cnc(N)nc2)nc1` [Example 688, 2-[6-(2-Aminopyrimidin-5-yl)pyridin-3-yl]-N-[(2S)-2-hydroxypropyl]benzenesulfonamide], the Ki on human FLAP (wild type FLAP, HTRF format) worked out at 696 nM. In addition, in test [1], the IC50 came out at 1180 nM.
`C[C@@H](O)CNS(=O)(=O)c1ccccc1-c1ccc(-c2cnc(N)nc2)nc1` [Example 689, 2-[6-(2-Aminopyrimidin-5-yl)pyridin-3-yl]-N-[(2R)-2-hydroxypropyl]benzenesulfonamide] registered a Ki at human FLAP (wild type FLAP, HTRF format) of 485 nM. Further, the IC50 in test [1] came out at 787 nM.
Regarding `Nc1ncc(-c2ccc(-c3ccc(C(F)(F)F)cc3S(=O)(=O)NCCO)cn2)cn1` [Example 690, 2-[6-(2-Aminopyrimidin-5-yl)pyridin-3-yl]-N-(2-hydroxyethyl)-5-(trifluoromethyl)benzenesulfonamide], affinity on human FLAP (wild type FLAP, HTRF format) was put at a Ki of 177 nM. The IC50 in test [1] was found to be 118 nM.
`CCNS(=O)(=O)c1cc(C(F)(F)F)ccc1-c1ccc(-c2cnc(N)nc2)nc1` [Example 692, 2-[6-(2-Aminopyrimidin-5-yl)pyridin-3-yl]-N-ethyl-5-(trifluoromethyl)benzenesulfonamide trifluoroacetic acid salt]: the Ki at human FLAP (wild type FLAP, HTRF format) was determined as 53.3 nM. Besides, the IC50 in test [1] is 110 nM.
For `CC(C)(C)NS(=O)(=O)c1ccccc1-c1ccc(-c2cnc(N)nc2)nc1` [Example 693, 2-[6-(2-Aminopyrimidin-5-yl)pyridin-3-yl]-N-tert-butylbenzenesulfonamide], on human FLAP (wild type FLAP, HTRF format), the Ki is 49.5 nM. Besides, in test [1], the IC50 was 103 nM.
For `C[C@H](CO)NS(=O)(=O)c1ccccc1-c1ccc(-c2cnc(N)nc2)nc1` [Example 694, 2-[6-(2-Aminopyrimidin-5-yl)pyridin-3-yl]-N-[(1R)-2-hydroxy-1-methylethyl]benzenesulfonamide] the same measures were 676 nM and 1010 nM.
Turning to `N#Cc1nc(-c2ccc(-c3ccccc3Oc3nccc(N)n3)cc2F)cnc1N` [Example 695, 3-Amino-6-{2′-[(4-aminopyrimidin-2-yl)oxy]-3-fluorobiphehenyl-4-yl}pyrazine-2-carbonitrile trifluoroacetic acid salt], the affinity on human FLAP (wild type FLAP, HTRF format) corresponds to a Ki of 8.4 nM. Further, the IC50 in test [1] is 336 nM.
On human FLAP (wild type FLAP, HTRF format), `Nc1cnc(-c2ccc(-c3ccc(Br)cc3F)cc2F)cn1` [Example 696, 5-(4′-Bromo-2′,3-difluorobiphenyl-4-yl)pyrazin-2-amine] gave a Ki of about 250 nM. The IC50 in test [1] came to 3270 nM.
For `COc1c(-c2ccc(C(F)(F)F)cc2)ccc(-c2cnc(N)cn2)c1F` [Example 698, 5-(3-fluoro-2-methoxy-4′-(trifluoromethyl)-[1,1′-biphenyl]-4-yl)pyrazin-2-amine] the same measures were 8.7 nM and 112 nM.
For `N#Cc1nc(N)cnc1-c1ccc(-c2ccccc2S(=O)(=O)N2CCS(=O)(=O)CC2)cc1F` [Example 704, 6-Amino-3-{2′-[(1,1-dioxidothiomorpholin-4-yl)sulfonyl]-3-fluorobiphenyl-4-yl}pyrazine-2-carbonitrile], the inhibition constant (Ki) at human FLAP (wild type FLAP, HTRF format) came to 102 nM. In addition, the IC50 in test [1] was determined as 191 nM.
Regarding `CNC(=O)C1CN(S(=O)(=O)c2ccccc2-c2ccc(-c3cnc(N)nc3)c(F)c2)C1` [Example 705, 1-{[4′-(2-Aminopyrimidin-5-yl)-3′-fluorobiphenyl-2-yl]sulfonyl}-N-methylazetidine-3-carboxamide], the Ki on human FLAP (wild type FLAP, HTRF format) amounted to 86.9 nM. Further, the IC50 in test [1] turned out to be 289 nM.
